Source: patent US20240131034A1, “METHODS OF TREATING STAPHYLOCOCCUS AUREUS BACTEREMIA INFECTIONS” (Basilea Pharmaceutica International AG, Allschwil, priority 2022, published 2024)
Entries after “also recorded” stand apart in the source; their conditions may differ.

How the values were obtained:
[1] = system: Staphylococcus aureus bacteremia (SAB); assay: Phase 3 study of ceftobiprole vs daptomycin ± aztreonam in complicated SAB (NCT03138733): efficacy; assay type: in vivo, human; settings: for DRC-assessed SAB relapses: 4 patients on daptomycin (2 MSSA, 2 MRSA), 2 patients on ceftobiprole (all MSSA); for Overall success rate in patients with high vancomycin MICs of 2-8 mg/L: 16 patients (8 MRSA, 8 MSSA), 7/8 vs 4/8; for Adjusted difference ceftobiprole − daptomycin ± aztreonam (95% CI): DRC overall success at PTE (mITT): Cochran-Mantel-Haenszel weights, adjusted for dialysis status and prior antibacterial treatment use; for Non-inferiority for overall success at PTE (70 days post-randomization): pre-specified −15% non-inferiority margin
[2] = assay type: in vivo
Protocol: Safety population: The safety population consisted of all randomized patients who received any amount/dose of study medication. Patients in the safety population were analyzed according to the first medication actually received.
Ceftohiprole 500 mg (as 667 mg ceftobiprole medocaril) was administered as a 2-hour intravenous (i.v.) infusion every 6 hours in the first 8 days, and every 8 hours from Day 9 onwards (with dose and/or schedule adjusted in patients with renal impairment). Daptomycin weight-based at 6 mg/kg (up to 10 mg/kg in accordance with institutional standards) administered as 0.5-hour i.v. infusion every 24 hours (with schedule adjusted in patients with renal impairment). Optional aztreonam 1000 mg fixed dose administered as 0.5-hour i.v. infusion every 24 hours (with dose adjusted in patients with renal impairment). The target treatment duration in Part I was 21-28 days of study medication, with a maximum treatment duration of 28 days. The maximum treatment duration In Part 2 was 42 days.
• 1. All-cause mortality assessed at Day 70 (PTE visit) in the mITT population. • 2. Microbiological cradication assessed by the DRC at Day 70 (PTE visit) in the mITT population. • 3. The overall success rate in the ITT, mITT, and CE populations; • a) at the BOT and PTE (ITT and CE populations only) visits • b) at the EOT and PTE visits, for RIE vs non-IE SAB • c) at the EOT and PTE visits, by renal-function status • 4. Development of new metastatic foci or other complications of SAB after Day 7 assessed in the mITT and CE populations. • 5. Time to S. aureus bloodstream clearance, defined as the elapsed time (days) from randomization to bloodstream clearance, with bloodstream clearance defined as the occurrence of two consecutive study days with blood-culture-negative assessments for S. aureus. • 6. Safety and tolerability based on incidence, type, severity, and relationship to study medication of AEs; and changes in laboratory tests • 7. Pharmacokinetics of ceftobiprole in the PK population

[3] = system: MSSA; assay: MIC of baseline blood S. aureus isolates: MSSA; assay type: cell-based, Staphylococcus aureus; settings: MSSA samples
Description: (§1) The distribution of ceftobiprole, daptomycin, and aztreonam MICs, including MIC50, MIC90, and MIC range, for blood S. aureus, MRSA, and MSSA, was tabulated for the mITT and CE populations. The shifts in ceftobiprole, daptomycin, and aztreonam MIC results from baseline to PTE, and the shifts in ceftobiprole, daptomycin, and aztreonam MIC results from baseline to the maximum value post-baseline by baseline infecting organisms (i.e., pathogens), were presented overall and by geographical region in the mITT and CE populations.

[4] = system: MRSA; assay: MIC of baseline blood S. aureus isolates: MRSA; assay type: cell-based, Staphylococcus aureus; settings: MRSA samples
Description: as §1

[5] = system: S. aureus; assay: On-treatment MIC shifts and MIC vs clinical failure, blood S. aureus; assay type: cell-based, Staphylococcus aureus; settings: MIC of the drug received, daptomycin: three patients (two MSSA, one MRSA)
Description: as §1

[6] = system: acute bacterial skin and soft tissue infections; settings: TARGET Phase 3; Overcash et al.; cited from earlier work
[7] = prolonged (>4 weeks) ceftobiprole treatment; cited from earlier work
[8] = mITT, Cochran-Mantel-Haenszel adjusted
[9] = mITT, Cochran-Mantel-Haenszel adjusted, listed as ceftobiprole
[10] = mITT, S. aureus (overall), bloodstream clearance = two consecutive study days with negative blood culture

Nc1nc(/C(=N/O)C(=O)N[C@@H]2C(=O)N3C(C(=O)O)=C(/C=C4\CCN([C@@H]5CCNC5)C4=O)CS[C@H]23)ns1 [Ceftobiprole]
DRC-assessed SAB relapses [1]: 1.1%
Overall success rate in patients with high vancomycin MICs of 2-8 mg/L [1]: 87.5%
Adjusted difference ceftobiprole − daptomycin ± aztreonam (95% CI): DRC overall success at PTE (CE) ([1]; CE, Cochran-Mantel-Haenszel adjusted): 0.6% (−8.3. 9.5)
Overall success at the PTE visits, patients with MRSA of USA clonal strain type ([1]; MRSA isolates typed by MLST, spa and SCCmec, 16/21 vs 16/23): 76.2%
Investigator-assessed overall success at the PTE visit ([1]; mITT): 73.5%
Patients who died through the PTE visit ([1]; mITT): 9.0%
Patients who experienced new metastatic foci or other complications of SAB after Day 7 ([1]; mITT): 5.8%
Patients with microbiological eradication at the PTE visit ([1]; mITT): 82.0%
Adjusted proportion difference: investigator-assessed overall success at PTE ([1]; mITT, 95% CI: −4.2, 13.5): 4.7%
Responders (overall success at the PTE visit) ([1]; mITT, 70 days post-randomization): 69.8%
Adjusted difference ceftobiprole − daptomycin ± aztreonam (95% CI): ACM through PTE [1, 8]: −0.5% (−6.2, 5.2)
Adjusted difference ceftobiprole − daptomycin ± aztreonam (95% CI): death due to SAB (DRC) [1, 8]: 0.4% (−3.2, 4.0)
Adjusted difference ceftobiprole − daptomycin ± aztreonam (95% CI): microbiological response at PTE [1, 8]: 5.1% (−2.9, 13.0)
Adjusted difference ceftobiprole − daptomycin ± aztreonam (95% CI): new metastatic foci or other complications of SAB after Day 7 [1, 8]: 0.1% (−4.6, 4.8)
Adjusted difference ceftobiprole − daptomycin ± aztreonam (95% CI): ACM through PTE [1, 9]: −0.5%
Adjusted difference ceftobiprole − daptomycin ± aztreonam (95% CI): microbiological response at PTE [1, 9]: 5.1%
Adjusted difference ceftobiprole − daptomycin ± aztreonam (95% CI): new metastatic foci or other complications of SAB after Day 7 [1, 9]: 0.1%
Adjusted difference ceftobiprole − daptomycin ± aztreonam (95% CI): DRC overall success at PTE (mITT) ([1]; mITT): 2.0% (−7.1, 11.1)
Adjusted difference ceftobiprole − daptomycin ± aztreonam (95% CI): DRC overall success at PTE (mITT) ([1]; mITT, listed as ceftobiprole): 2.0%
Median time (days) clearance (95% CI) ([1]; mITT, MRSA): 5 days
Patients with clearance achieved ([1]; mITT, MRSA): 93.3%
Median time (days) clearance (95% CI) ([1]; mITT, MSSA): 3 days
Patients with clearance achieved ([1]; mITT, MSSA): 94.3%
Median time (days) clearance (95% CI) ([1]; mITT, S. aureus (overall)): 4 days
Patients with clearance achieved [1, 10]: 94.2%
Time (days) to S. aureus bloodstream clearance, Median (95% CI) ([1]; mITT, Table 1): 4 (3, 5) days
Non-inferiority for overall success at PTE (70 days post-randomization) ([1]; mITT): non-inferiority of ceftobiprole
Non-inferiority for overall success at PTE (70 days post-randomization) ([1]; mITT, listed as ceftobiprole): non-inferiority of ceftobiprole to daptomycin±aztreonam; also recorded: non-inferior to daptomycin
Response rate (primary endpoint), non-white patients ([1]; subgroup analysis, 5/10 vs 5/6): 50.0%
Response rate (primary endpoint), age group of 18-34 years ([1]; subgroup analysis, 17/20 vs 11/19): 85.0%
AE anemia, patients ([2]; human, in vivo): 11.0%
AE gamma-glutamyl-transferase increased, patients ([2]; human, in vivo): 6.3%
AE nausea, patients ([2]; human, in vivo): 10.5%
Adverse events leading to discontinuation ([2]; human, in vivo): 9.4%
Drug-related AEs leading to discontinuation ([2]; human, in vivo): 4.7%
Drug-related AEs leading to discontinuation: allergy-type events ([2]; human, in vivo): 4 n
Drug-related AEs leading to discontinuation: hepatic function test abnormalities ([2]; human, in vivo): 1 n
Drug-related AEs leading to discontinuation: leukopenia ([2]; human, in vivo): 1 n
Drug-related AEs leading to discontinuation: nausea/vomiting ([2]; human, in vivo): 4 n
Drug-related AEs leading to discontinuation: seizure ([2]; human, in vivo): 1 n
Patients who experienced a serious adverse event (SAE) ([2]; human, in vivo): 18,8%
Patients who experienced a severe AE ([2]; human, in vivo): 15.2%
Patients who experienced an AE ([2]; human, in vivo): 63.4%
Study treatment discontinuation, reason non-related AE ([2]; human, in vivo): 3.2%
Study treatment discontinuation, reason related AE ([2]; human, in vivo): 4.8%
Study-drug-related AEs ([2]; human, in vivo): 13.1%
Study discontinuation, reason death ([2]; mITT population): 9.0%
Study treatment discontinuation, reason death ([2]; mITT population): 4.8%
Isolates at MIC 0.25 mg/L [3]: 51%
Isolates at MIC 0.5 mg/L [3]: 48%
Isolates at MIC either 0.25 mg/L or 0.5 mg/L [3]: 99%
Isolates at MIC 0.5 mg/L [4]: 14%
Isolates at MIC 1 mg/L [4]: 58%
Isolates at MIC 2 mg/L [4]: 28%
On-treatment increases in MICs by ≥four-fold, patients ([5]; listed as cefobiprole): No on-treatment increases
Early clinical response and investigator-assessed clinical success vs vancomycin and aztreonam [6]: non-inferior to vancomycin and aztreonam
Risk of convulsions [7]: potential for an increased risk of convulsions

CCCCCCCCCC(=O)N[C@@H](Cc1c[nH]c2ccccc12)C(=O)N[C@H](CC(N)=O)C(=O)N[C@@H](CC(=O)O)C(=O)N[C@@H]1C(=O)NCC(=O)N[C@@H](CCCN)C(=O)N[C@@H](CC(=O)O)C(=O)N[C@H](C)C(=O)N[C@@H](CC(=O)O)C(=O)NCC(=O)N[C@H](CO)C(=O)N[C@@H]([C@H](C)CC(=O)O)C(=O)N[C@@H](CC(=O)c2ccccc2N)C(=O)O[C@@H]1C [Daptomycin, reference compound]
DRC-assessed SAB relapses [1]: 3.0%
Overall success rate in patients with high vancomycin MICs of 2-8 mg/L [1]: 50.0%
Median time (days) clearance (95% CI) ([1]; mITT, MRSA): 5 days
Patients with clearance achieved ([1]; mITT, MRSA): 87.8%
Median time (days) clearance (95% CI) ([1]; mITT, MSSA): 4 days
Patients with clearance achieved ([1]; mITT, MSSA): 95.2%
Median time (days) clearance (95% CI) ([1]; mITT, S. aureus (overall)): 4 days
Patients with clearance achieved [1, 10]: 92.9%
Drug-related AEs leading to discontinuation: cosinophilic pneumonia ([2]; Safety population): 2 n
Drug-related AEs leading to discontinuation: myopathy ([2]; Safety population): 1 n
Tolerability / safety in patients with complicated SAB ([2]; in vivo): well tolerated
Isolates at MIC 0.25 mg/L [3]: 28%
Isolates at MIC 0.5 mg/L [3]: 71%
Isolates at MIC either 0.25 mg/L or 0.5 mg/L [3]: 99%
Isolates at MIC 0.25 mg/L [4]: 22%
Isolates at MIC 0.5 mg/L [4]: 76%
Isolates at MIC 1 mg/L [4]: 2%
On-treatment increases in MICs by ≥four-fold, patients [5]: 1.5%
